According to ChEMBL document CHEMBL4251708, “Synthesis and Biological Screening of Pyrano[3,2-c]quinoline Analogues as Anti-inflammatory and Anticancer Agents” (ACS Med Chem Lett, 2018):
Activity calls are given as the source filed them. The calls are words filed in the database; no cut-off is given here.

Tests used:
[1] = system: THP-1; test: Antiinflammatory activity in PMA-differentiated human THP1 cells assessed as inhibition of LPS-induced TNF-alpha production at 1 uM after 24 hrs by ELISA relative to control; type: functional; conditions: THP-1, 24 h
[2] = system: THP-1; test: Antiinflammatory activity in PMA-differentiated human THP1 cells assessed as inhibition of LPS-induced TNF-alpha production at 10 uM after 24 hrs by ELISA relative to control; type: functional; conditions: THP-1, 24 h
[3] = system: THP-1; test: Antiinflammatory activity in PMA-differentiated human THP1 cells assessed as inhibition of LPS-induced IL-6 production at 1 uM after 24 hrs by ELISA relative to control; type: functional; conditions: THP-1, 24 h
[4] = system: THP-1; test: Antiinflammatory activity in PMA-differentiated human THP1 cells assessed as inhibition of LPS-induced IL-6 production at 10 uM after 24 hrs by ELISA relative to control; type: functional; conditions: THP-1, 24 h
[5] = system: MIA PaCa-2; test: Antiproliferative activity against human MIAPaCa2 cells at 10 uM relative to control; type: functional
[6] = system: ACHN (Homo sapiens); test: Antiproliferative activity against human ACHN cells at 1 uM relative to control
[7] = system: ACHN (Homo sapiens); test: Antiproliferative activity against human ACHN cells at 10 uM relative to control
[8] = system: MDA-MB-231 (Homo sapiens); test: Antiproliferative activity against human MDA-MB-231 cells at 1 uM relative to control; conditions: mda-mb-231, 1 µM
[9] = system: MIA PaCa-2 (Homo sapiens); test: Antiproliferative activity against human MIA PaCa-2 cells at 1 uM relative to control
[10] = system: THP-1 (Homo sapiens); test: Antiinflammatory activity in human THP1 cells assessed as inhibition of IL-6 production at 10 uM relative to control; parameters: scale not given: the % may be the effect or the level left
[11] = system: THP-1 (Homo sapiens); test: Antiinflammatory activity in human THP1 cells assessed as inhibition of TNF-alpha production at 10 uM relative to control; parameters: scale not given: the % may be the effect or the level left
[12] = system: THP-1; test: Antiinflammatory activity in PMA-differentiated human THP1 cells assessed as inhibition of LPS-induced TNF-alpha production after 24 hrs by ELISA; type: functional, cell-based; conditions: THP-1, 24 h
[13] = system: THP-1; test: Antiinflammatory activity in PMA-differentiated human THP1 cells assessed as inhibition of LPS-induced IL-6 production after 24 hrs by ELISA; type: functional, cell-based; conditions: THP-1, 24 h
[14] = system: THP-1; test: Cytotoxicity against PMA-differentiated human THP1 cells assessed as reduction in cell viability after 4.5 hrs by MTS assay; type: cell-based; conditions: THP-1, 4.5 h
[15] = system: ACHN; test: Antiproliferative activity against human ACHN cells after 48 hrs by propidium iodide staining based fluorometry; type: functional, cell-based
[16] = system: PANC-1; test: Antiproliferative activity against human PANC1 cells after 48 hrs by propidium iodide staining based fluorometry; type: functional, cell-based; conditions: PANC-1, 48 h
[17] = system: HCT-116; test: Antiproliferative activity against human HCT116 cells after 48 hrs by propidium iodide staining based fluorometry; type: functional, cell-based; conditions: HCT-116, 48 h
[18] = system: NCI-H460; test: Antiproliferative activity against human H460 cells after 48 hrs by propidium iodide staining based fluorometry; type: functional, cell-based; conditions: NCI-H460, 48 h
[19] = system: Calu-1; test: Antiproliferative activity against human Calu1 cells after 48 hrs by propidium iodide staining based fluorometry; type: functional, cell-based; conditions: Calu-1, 48 h
[20] = system: PBMC; test: Antiinflammatory activity in human PBMC assessed as inhibition of LPS-induced TNF-alpha production incubated for 30 mins followed by LPS addition measured after 4.5 hrs by ELISA; type: functional, cell-based
[21] = system: MDA-MB-231 (Homo sapiens); test: Antiproliferative activity against human MDA-MB-231 cells at 10 uM relative to control
[22] = system: A-549 (Homo sapiens); test: Antiproliferative activity against human A-549 cells at 10 uM relative to control

Row | SMILES | inhibition at 1 µM [1] [%] | inhibition at 10 µM [2] [%] | inhibition at 1 µM [3] [%] | inhibition at 10 µM [4] [%] | Activity [5] [%] | Activity [6] [%] | Activity [8] [%] | Activity [9] [%] | Activity [10] [%] | Activity [11] [%] | Activity [21] [%] | also measured
1 | Cn1c(=O)c2c(c3ccccc31)OC(N)=C(C#N)C2c1ccc(Cl)cc1 (configuration not stated) | 0 | 0 | 0 | 75 | 63 | 45 | 0 | 21 | 75 | 42 |  | Activity [7]: 69%
2 | Cn1c(=O)c2c(c3ccccc31)OC(N)=C(C#N)C2c1c[nH]c2ccccc12 (configuration not stated) | 0 | 0 | 0 | 8 | 77 | 27 | 16 | 18 |  | 0 | 67 | IC50 [12]: 11000 nM; IC50 [13]: 1400 nM; IC50 [14]: 6800 nM; IC50 [15]: > 20000 nM; IC50 [16]: > 20000 nM; IC50 [17]: > 20000 nM; IC50 [18]: > 20000 nM; IC50 [19]: > 20000 nM; inhibition [20]: inactive
3 | Cn1c(=O)c2c(c3ccccc31)OC(N)=C(C#N)C2c1cccc(Cl)c1 (configuration not stated) | 0 | 0 | 0 | 74 | 38 | 81 | 53 | 63 | 74 | 44 |  | IC50 [12]: 500 nM; IC50 [13]: 200 nM; IC50 [14]: > 10000 nM; IC50 [15]: 100 nM; IC50 [16]: 1000 nM; IC50 [17]: 300 nM; IC50 [18]: 300 nM; IC50 [19]: 500 nM; IC50 [20]: 1800 nM
4 | Cn1c(=O)c2c(c3ccccc31)OC(N)=C(C#N)C2c1c2ccccc2cc2ccccc12 (configuration not stated) | 0 | 0 | 0 | 10 | 66 | 25 | 19 | 40 | 0 | 0 | 69 | 
5 | COc1ccc(C2C(C#N)=C(N)Oc3c2c(=O)n(C)c2ccccc32)cc1 (configuration not stated) | 0 | 0 | 0 | 73 | 84 | 78 | 70 | 80 | 77 | 0 | 81 | IC50 [12]: 12800 nM; IC50 [13]: 1700 nM; IC50 [14]: 30000 nM; IC50 [15]: > 20000 nM; IC50 [16]: > 20000 nM; IC50 [17]: > 20000 nM; IC50 [18]: > 20000 nM; IC50 [19]: > 20000 nM; inhibition [20]: inactive
6 | CN(C)c1ccc(C2C(C#N)=C(N)Oc3c2c(=O)n(C)c2ccccc32)cc1 (configuration not stated) | 0 | 0 | 0 | 10 | 31 | 41 | 20 | 34 | 0 | 0 | 22 | 
7 | CSc1ccc(C2C(C#N)=C(N)Oc3c2c(=O)n(C)c2ccccc32)cc1 (configuration not stated) | 0 | 0 | 0 | 0 | 17 | 0 | 0 | 16 | 37 | 28 | 10 | 
8 | Cn1c(=O)c2c(c3ccccc31)OC(N)=C(C#N)C2c1ccc([N+](=O)[O-])cc1 (configuration not stated) | 0 | 0 | 0 | 0 | 64 | 9 | 0 | 15 | 0 | 27 |  | Activity [7]: 75%; Activity [22]: 77%
9 | Cn1c(=O)c2c(c3ccccc31)OC(N)=C(C#N)C2c1ccccc1Cl (configuration not stated) | 0 | 0 | 0 | 0 | 69 | 48 | 0 | 26 | 0 | 12 |  | 
10 | COc1ccccc1C1C(C#N)=C(N)Oc2c1c(=O)n(C)c1ccccc21 (configuration not stated) | 0 | 0 | 0 | 14 | 21 | 37 | 22 | 24 | 32 | 0 | 18 | 
11 | COc1cccc(C2C(C#N)=C(N)Oc3c2c(=O)n(C)c2ccccc32)c1 (configuration not stated) | 0 | 0 | 0 | 70 | 75 | 67 | 66 | 76 |  | 0 | 75 | Activity [7]: 73%
12 | C[C@@H]1C[C@H]2[C@@H]3CCC4=CC(=O)C=C[C@]4(C)[C@@]3(F)[C@@H](O)C[C@]2(C)[C@@]1(O)C(=O)CO [DEXAMETHASONE] | 40 |  | 58 |  |  |  |  |  |  |  |  | 
13 | Cn1c(=O)c2c(c3ccccc31)OC(N)=C(C#N)C2c1ccc(O)cc1 (configuration not stated) | 0 | 0 | 0 | 13 | 83 | 55 | 23 | 55 | 0 | 0 | 77 | IC50 [12]: 10000 nM; IC50 [13]: 4000 nM; IC50 [14]: 30000 nM; IC50 [15]: 1800 nM; IC50 [16]: 1900 nM; IC50 [17]: 600 nM; IC50 [18]: 1200 nM; IC50 [19]: 1100 nM; inhibition [20]: inactive
14 | CCOc1cc(C2C(C#N)=C(N)Oc3c2c(=O)n(C)c2ccccc32)ccc1O (configuration not stated) | 0 | 0 | 0 | 0 | 68 | 6 | 12 | 27 |  | 0 | 88 | 
15 | Cn1c(=O)c2c(c3ccccc31)OC(N)=C(C#N)C2c1cccc(Oc2ccccc2)c1 (configuration not stated) | 18 | 0 | 0 | 70 | 72 | 69 | 47 | 66 | 52 | 34 | 51 | IC50 [12]: 200 nM; IC50 [13]: 200 nM; IC50 [14]: 11000 nM; IC50 [15]: 3400 nM; IC50 [16]: 4700 nM; IC50 [17]: 5100 nM; IC50 [18]: 1400 nM; IC50 [19]: 1800 nM; IC50 [20]: 200 nM; inhibition [20]: Dose-dependent effect; Activity [22]: 67%
16 | Cn1c(=O)c2c(c3ccccc31)OC(N)=C(C#N)C2c1cccc(O)c1 (configuration not stated) | 5 | 0 | 0 | 0 | 29 | 0 | 0 | 17 | 11 | 4 | 12 | 
17 | COc1ccc(C2C(C#N)=C(N)Oc3c2c(=O)n(C)c2ccccc32)cc1OC (configuration not stated) | 0 | 0 | 0 | 23 | 50 | 38 | 20 | 40 | 43 | 0 | 24 | 
